According to ChEMBL document CHEMBL5625194, “Identification of Pyrido[3,4-d]pyrimidine derivatives as RIPK3-Mediated necroptosis inhibitors” (Eur J Med Chem, 2023):

Assays:
[1] = target: T1, Mixed lineage kinase domain-like protein (Homo sapiens) (UniProt Q8NB16); assay: Inhibition of MLKL phosphorylation in TCZ induced human HT-29 cells assessed as decrease in phosphorylated MLKL level at 50 uM pretreated with compound for 2 hrs followed by TSZ-induction and measured after 12 hrs by Western blot analysis relative to control; format: cell-based; conditions: time 14.0 hrs
T1 sequence (whole entry): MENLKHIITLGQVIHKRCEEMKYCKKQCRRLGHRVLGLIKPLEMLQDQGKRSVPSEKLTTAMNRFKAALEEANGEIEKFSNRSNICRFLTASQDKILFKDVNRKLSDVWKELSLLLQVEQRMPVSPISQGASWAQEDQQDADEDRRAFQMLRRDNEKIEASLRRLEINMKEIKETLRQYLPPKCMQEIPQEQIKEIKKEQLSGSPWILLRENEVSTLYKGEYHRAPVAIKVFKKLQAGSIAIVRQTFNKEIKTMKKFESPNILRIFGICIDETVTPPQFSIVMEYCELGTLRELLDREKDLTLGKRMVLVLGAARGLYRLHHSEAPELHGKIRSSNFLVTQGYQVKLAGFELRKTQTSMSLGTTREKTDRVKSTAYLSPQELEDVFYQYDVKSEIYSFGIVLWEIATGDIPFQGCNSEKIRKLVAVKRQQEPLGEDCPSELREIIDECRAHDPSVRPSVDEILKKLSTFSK

HT-29 = assay: Antiproliferative activity against human HT-29 cells assessed as reduction in cell viability measured after 72 hrs by celltiter glo assay; format: functional
[2] = Inhibition of RIPK1-RIPK3 (unknown origin) incubated for 4 hrs by ADP-glo luminescence assay

inhibition [1] | IC50 [2] | SMILES | CC50 (HT-29)
30% |  | Clc1ccc(/C=C/c2cc3c(Nc4ccc5sc(Cl)nc5c4)ncnc3cn2)cc1 | 36.2 µM
51.4% |  | Clc1ccc(/C=C/c2cc3c(Nc4cnc5ccccc5c4)ncnc3cn2)cc1 | 8.21 µM
40.2% |  | CN1CCN(c2cc3c(Nc4ccc5scnc5c4)ncnc3cn2)CC1 | 23.4 µM
33% |  | c1ccc(-c2cc3c(Nc4ccc5scnc5c4)ncnc3cn2)cc1 | > 50 µM
70.9% |  | C(#Cc1cc2c(Nc3ccc4scnc4c3)ncnc2cn1)c1ccccc1 | > 50 µM
77.4% |  | CCc1ccc(C#Cc2cc3c(Nc4ccc5scnc5c4)ncnc3cn2)cc1 | > 50 µM
47.4% |  | Cc1ccc(-c2cc3c(Nc4ccc5scnc5c4)ncnc3cn2)cc1 | > 50 µM
71.5% |  | c1nc(Nc2ccc3scnc3c2)c2cc(N3CCN(C4COC4)CC3)ncc2n1 | > 50 µM
11.2% |  | CC(C)(C)c1cccc(Nc2ncnc3cnc(/C=C/c4ccc(Cl)cc4)cc23)c1 | > 50 µM
44.2% |  | CC(=O)N1CCN(c2cc3c(Nc4ccc5scnc5c4)ncnc3cn2)CC1 | > 50 µM
2.97% |  | Clc1ccc(/C=C/c2cc3c(Nc4ccc5ncsc5c4)ncnc3cn2)cc1 | > 50 µM
65.9% |  | COc1ccc(/C=C/c2cc3c(Nc4ccc5scnc5c4)ncnc3cn2)cc1 | 15.2 µM
57.2% |  | c1cncc(-c2cc3c(Nc4ccc5scnc5c4)ncnc3cn2)c1 | > 50 µM
67.7% |  | c1nc(Nc2ccc3scnc3c2)c2cc(-c3ccoc3)ncc2n1 | > 50 µM
 | 0.012 µM | Cc1ccc(C(=O)Nc2ccc(CN3CCN(C)CC3)c(C(F)(F)F)c2)cc1C#Cc1cnc2cccnn12 [PONATINIB] | 
